Measurements taken from PubChem BioAssay AID435031 (Sanford-Burnham Center for Chemical Genomics, 2010).
Active and inactive are the calls of the source. How the calls were made is not given here.

Tested on: cytotoxicity counter-screen, luminescence read-out
Experiment: cell viability loss, luminescent readout – luminescence, cytotoxicity control for HIV fusion inhibitor project, SAR follow-up (AID 435031)

COc1ccc(OC)c(N2C(=O)/C(=C/c3ccco3)C(=O)NC2=S)c1
CC50: > 100 µM (inactive)

CS(=O)(=O)C1=NSC2=NC(=O)/C(=C\c3cccn3-c3ccc(Cl)cc3)C(=N)N21
CC50: > 100 µM (inactive)

O=c1c(=Cc2cc([N+](=O)[O-])cc([N+](=O)[O-])c2O)sc2nc3ccccc3n12
CC50: > 100 µM (inactive)

O=C1NC(=S)N(c2ccc(F)cc2)C(=O)/C1=C/c1ccco1
CC50: > 100 µM (inactive)

O=C(O)c1ccccc1C(=O)N(Cc1cccc(Oc2ccc(Cl)cc2)c1)[C@H]1CCCc2ccccc21
CC50: 19 µM

CSc1nnc(-c2ccccc2N=Cc2c(C)[nH]n(-c3ccc4ccccc4c3)c2=O)c(=O)[nH]1
CC50: > 100 µM (inactive)

COc1cc(/C=N/NS(=O)(=O)c2ccc3ccccc3c2)ccc1OCc1ccc(C(=O)O)cc1
CC50: > 100 µM (inactive)

COc1cc(C=NNc2ccc(Cl)c(C(=O)O)c2)ccc1OC(=O)c1ccc(F)cc1
CC50: > 100 µM (inactive)

O=C1NC(=S)N(c2ccc(F)cc2)C(=O)/C1=C\c1ccoc1
CC50: > 100 µM (inactive)

CS(=O)(=O)C1=NSC2=NC(=O)/C(=C\c3ccc(OS(=O)(=O)c4ccccc4)cc3)C(=N)N21
CC50: > 100 µM (inactive)

O=C(N/N=C/c1c(O)n(C2CCCCC2)c(=S)[nH]c1=O)c1ccccc1O
CC50: > 100 µM (inactive)

COC(=O)c1sc(-c2ccc(C(C)(C)C)cc2)cc1NC(=O)c1ccccc1C(=O)O
CC50: 17 µM

CCOC(=O)C1=C(C)N=c2sc(=Cc3ccc(OCC(=O)O)cc3)c(=O)n2C1c1ccc(OC(C)C)cc1 (stereo unspecified)
CC50: 32 µM

CC(C)S(=O)(=O)C1=NSC2=NC(=O)/C(=C\c3ccc(-c4cccc(C(=O)O)c4)o3)C(=N)N21
CC50: > 100 µM (inactive)

N#C/C(=C\c1ccc(OCc2ccc(Cl)cc2)cc1)C(=O)Nc1cccc(C(=O)O)c1
CC50: > 100 µM (inactive)

COc1ccc(C(=O)Oc2ccc(C=NNc3ccc(Cl)c(C(=O)O)c3)cc2OC)cc1
CC50: > 100 µM (inactive)

Cc1c(Cl)cccc1NS(=O)(=O)c1ccc2c(c1)C1C=CCC1C(c1ccc(C(=O)O)cc1)N2 (stereo unspecified)
CC50: > 100 µM (inactive)

CC1(C)CC(=O)C2=C(C1)c1c(ccc3ccccc13)NC2c1cc([N+](=O)[O-])cc([N+](=O)[O-])c1O (stereo unspecified)
CC50: > 100 µM (inactive)

O=[N+]([O-])c1cc([N+](=O)[O-])c2oc(-c3ccccc3)c(Br)c2c1O
CC50: > 100 µM (inactive)

Cc1ccc(S(=O)(=O)Oc2ccc(/C=C3/C(=N)N4C(=NC3=O)SN=C4S(C)(=O)=O)cc2)cc1
CC50: 91 µM

CCOC(=O)c1sc(N2C(=O)C(O)=C(C(=O)c3ccc(C)o3)C2c2cccc([N+](=O)[O-])c2)nc1C (stereo unspecified)
CC50: > 100 µM (inactive)

Oc1c(Cl)cc(Cl)c(Cl)c1Cc1c(O)c(Cl)cc(Cl)c1Cl
CC50: 18 µM

COc1cc(C=NNc2ccc(Cl)c(C(=O)O)c2)ccc1OC(=O)c1ccccc1F
CC50: > 100 µM (inactive)

CC(C)(C)c1cc(-c2csc(Nc3ccccc3)[n+]2Cc2ccc(C(=O)O)cc2)cc(C(C)(C)C)c1O
CC50: 13.7 µM

CC(C)S(=O)(=O)C1=NSC2=NC(=O)/C(=C\c3ccc(-c4ccccc4)o3)C(=N)N21
CC50: > 100 µM (inactive)

COc1cc(/C=C2\SC(=O)N(c3ccccc3Cl)C2=O)cc([N+](=O)[O-])c1O
CC50: > 100 µM (inactive)

CCC(Sc1nc2ccsc2c(=O)n1Cc1ccc(C(=O)O)cc1)C(=O)Nc1ccc(C)c(Cl)c1 (stereo unspecified)
CC50: > 100 µM (inactive)

O=C(O)CCCN1C(=O)/C(=C/c2ccc(-c3nc4ccccc4s3)o2)SC1=S
CC50: > 100 µM (inactive)

COc1ccccc1NS(=O)(=O)c1cccc(-n2c(O)c(C=Nc3ccccc3C(=O)O)c3ccccc3c2=O)c1
CC50: > 100 µM (inactive)

CCC(C)(C)C1CCc2c(sc(NC(=O)c3ccccc3C(=O)O)c2C#N)C1 (stereo unspecified)
CC50: 22 µM

O=C(O)c1ccccc1N=Nc1c(O)[nH]c2ccc([N+](=O)[O-])cc12
CC50: > 100 µM (inactive)
